Among the data in US9505749B2, “Quinazolinone compounds and derivatives thereof” (AMGEN INC., priority 2012, dated 2016) are IC50 and EC50 values, retold here.

In general, IC50 refers to the point on the concentration scale where inhibition reaches its midpoint. In general, EC50 refers to the concentration at which the effect is half-maximal.

For assay [1], the target named is 6×HIS-tankyrase 2 (946-1162) (Homo sapiens (Human), UniProt Q9H2K2). The experiment in a line: Tankyrase 2 biochemical assay (AlphaLisa, PARsylation). Particulars: 250 nM NAD; read-out: TNKS2 IC50. A general note: In Alpha technology, singlet oxygen from a donor bead excites a nearby acceptor bead.
Assay [2] deals with PARP2 (Homo sapiens (Human), UniProt Q9UGN5). Nature of the assay: PARP2 biochemical assay (BPS kit).
In assay [3] the test system is Axin2 accumulation in SW480 cells. Nature of the assay: Axin2 384 immunofluorescence assay. Conditions: Homo sapiens, read-out: Axin2 384 IF EC50. It counts as cell-based.
The test system of assay [4] is total β-catenin in SW480 colorectal cells. The experiment in a line: Total β-catenin MSD 96-well plate assay for SW480 cells. Conditions: Homo sapiens, SW480, read-out: SW480-Total beta-catenin (TBC) IC50 IP.
For assay [5], the target named is 6×HIS-tankyrase1 (1091-1325) (Homo sapiens (Human), UniProt O95271). The experiment in a line: Tankyrase 1 biochemical assay (AlphaLisa, PARsylation). Conditions: read-out: TNKS1 IC50.
In assay [6] the target is PARP1 (Homo sapiens (Human), UniProt P09874). Nature of the assay: PARP1 biochemical assay (Trevigen kit). An excerpt: PARP1 biochemical assay was purchased as a kit from Trevigen (cat.#4676-096-K) and used per manufacturers recommendations.

Read-outs that look alike come from different tables or passages of the source.

Chain of 6×HIS-tankyrase 2 (946-1162) (Q9H2K2 946-1162): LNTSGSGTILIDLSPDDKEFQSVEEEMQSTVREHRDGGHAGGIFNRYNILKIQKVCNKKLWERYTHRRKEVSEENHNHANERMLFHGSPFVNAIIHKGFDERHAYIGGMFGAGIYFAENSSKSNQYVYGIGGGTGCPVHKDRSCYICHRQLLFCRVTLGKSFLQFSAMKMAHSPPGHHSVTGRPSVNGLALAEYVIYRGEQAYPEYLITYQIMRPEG
Chain of PARP2 (Q9UGN5 whole entry): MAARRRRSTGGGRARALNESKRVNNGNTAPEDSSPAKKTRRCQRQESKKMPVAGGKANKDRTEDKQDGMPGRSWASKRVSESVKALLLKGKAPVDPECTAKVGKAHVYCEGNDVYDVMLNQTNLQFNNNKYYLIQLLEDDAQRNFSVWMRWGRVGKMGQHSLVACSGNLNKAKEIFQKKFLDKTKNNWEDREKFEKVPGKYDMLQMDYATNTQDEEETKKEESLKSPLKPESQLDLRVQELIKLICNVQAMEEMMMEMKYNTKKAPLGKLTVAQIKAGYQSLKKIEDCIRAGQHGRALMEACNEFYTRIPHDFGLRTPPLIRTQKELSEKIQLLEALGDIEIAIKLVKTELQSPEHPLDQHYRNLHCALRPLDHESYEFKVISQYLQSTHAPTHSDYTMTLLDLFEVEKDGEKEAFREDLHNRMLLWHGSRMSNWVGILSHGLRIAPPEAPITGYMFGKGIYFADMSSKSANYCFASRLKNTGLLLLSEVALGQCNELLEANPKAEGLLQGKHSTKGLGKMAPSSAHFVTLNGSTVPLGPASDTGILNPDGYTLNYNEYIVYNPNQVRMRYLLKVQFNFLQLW
Chain of PARP1 (P09874 whole entry): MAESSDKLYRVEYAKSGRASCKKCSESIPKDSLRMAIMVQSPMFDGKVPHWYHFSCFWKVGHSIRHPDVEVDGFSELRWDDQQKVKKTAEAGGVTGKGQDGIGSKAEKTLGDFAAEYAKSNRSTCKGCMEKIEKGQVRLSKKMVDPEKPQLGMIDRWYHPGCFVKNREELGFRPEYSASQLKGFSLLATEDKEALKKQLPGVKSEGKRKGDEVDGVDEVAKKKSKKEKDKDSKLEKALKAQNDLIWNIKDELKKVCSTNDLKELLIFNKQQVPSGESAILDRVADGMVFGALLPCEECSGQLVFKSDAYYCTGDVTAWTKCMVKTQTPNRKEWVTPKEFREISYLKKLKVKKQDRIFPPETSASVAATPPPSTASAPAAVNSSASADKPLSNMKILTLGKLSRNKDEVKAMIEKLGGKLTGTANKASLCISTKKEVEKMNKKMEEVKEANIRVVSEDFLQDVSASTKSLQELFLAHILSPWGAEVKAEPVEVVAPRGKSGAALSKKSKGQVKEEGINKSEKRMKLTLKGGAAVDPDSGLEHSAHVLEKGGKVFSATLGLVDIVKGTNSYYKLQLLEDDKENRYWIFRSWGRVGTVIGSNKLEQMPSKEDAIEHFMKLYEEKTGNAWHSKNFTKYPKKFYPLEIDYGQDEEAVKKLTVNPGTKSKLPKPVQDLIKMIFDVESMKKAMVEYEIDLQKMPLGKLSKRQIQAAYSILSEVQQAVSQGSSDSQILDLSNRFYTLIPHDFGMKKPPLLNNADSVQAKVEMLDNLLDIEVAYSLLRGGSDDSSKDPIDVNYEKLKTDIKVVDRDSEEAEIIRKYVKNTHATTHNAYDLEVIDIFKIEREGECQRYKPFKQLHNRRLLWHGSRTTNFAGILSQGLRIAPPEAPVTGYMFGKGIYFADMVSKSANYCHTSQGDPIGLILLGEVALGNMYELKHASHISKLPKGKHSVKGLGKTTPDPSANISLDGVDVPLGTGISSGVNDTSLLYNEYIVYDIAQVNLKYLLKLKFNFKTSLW
Chain of 6×HIS-tankyrase1 (1091-1325) (O95271 1091-1325): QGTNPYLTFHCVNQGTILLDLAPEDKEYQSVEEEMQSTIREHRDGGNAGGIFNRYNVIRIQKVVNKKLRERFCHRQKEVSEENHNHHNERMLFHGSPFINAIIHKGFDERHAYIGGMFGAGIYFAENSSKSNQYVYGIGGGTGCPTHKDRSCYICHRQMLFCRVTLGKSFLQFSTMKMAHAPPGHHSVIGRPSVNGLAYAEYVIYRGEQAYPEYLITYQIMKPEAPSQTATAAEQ

Consider `O=C(CCc1nc2ccccc2c(=O)[nH]1)N[C@H]1CC[C@H](n2c(=O)[nH]c3ccc(Cl)cc32)CC1` [Example 86, N-((1r,4r)-4-(6-chloro-2-oxo-2,3-dihydro-1H-benzo[d]imidazol-1-yl)cyclohexyl)-3-(4-oxo-3,4-dihydroquinazolin-2-yl)propanamide], for which the IC50 in assay [1] stood at 0.347 nM; in assay [2] it was 279 nM; in assay [4], 32.6 nM; in assay [5] (400 nM NAD, 60 minutes at RT), 1.01 nM. Besides, in assay [3] (SW480 cells, 24 hours), the concentration giving a half-maximal response (EC50) amounted to 207 nM.
As for `O=C(CSc1nc2ccccc2c(=O)[nH]1)N[C@H]1CC[C@H](n2c(=O)[nH]c3cc(Cl)ccc32)CC1` [Example 87, N-((1r,4r)-4-(5-chloro-2-oxo-2,3-dihydro-1H-benzo[d]imidazol-1-yl)cyclohexyl)-2-((4-oxo-3,4-dihydroquinazolin-2-yl)thio)acetamide], the 50% inhibitory concentration (IC50) in assay [1] is 2.52 nM; in assay [4], 7.27 nM; in assay [5] (400 nM NAD, 60 minutes at RT) it was 0.0597 nM; in assay [6], > 85000 nM. The concentration giving a half-maximal response (EC50) in assay [3] (SW480 cells, 24 hours) is 25.8 nM.
Take `Cc1cc(=O)[nH]c(SCCC(=O)N[C@H]2CC[C@H](c3nnc(-c4ccccc4)o3)CC2)n1` [Example 37, 3-((4-methyl-6-oxo-1,6-dihydropyrimidin-2-yl)thio)-N-((1r,4r)-4-(5-phenyl-1,3,4-oxadiazol-2-yl)cyclohexyl)propanamide]: the IC50 in assay [1] was 3.48 nM; in assay [2] it was > 170000 nM; in assay [4] it was 738 nM; in assay [5] (400 nM NAD, 60 minutes at RT) it was 3.7 nM; in assay [6] it was > 85000 nM.
On to `O=C(CCCc1nc2ccccc2c(=O)[nH]1)N[C@H]1CC[C@H](c2nnc(-c3ccc(F)c(Cl)c3)o2)CC1` [Example 35, N-(trans-4-(5-(3-chloro-4-fluorophenyl)-1,3,4-oxadiazol-2-yl)cyclohexyl)-4-(4-oxo-3,4-dihydro-2-quinazolinyl)butanamide 2,2,2-trifluoroacetate], for which the concentration for half-maximal inhibition (IC50) in assay [1] was determined as 0.196 nM; in assay [2] it was 923 nM; in assay [4] it was 19.7 nM; in assay [5] (400 nM NAD, 60 minutes at RT) it was 0.277 nM. Moreover, the EC50 in assay [3] (SW480 cells, 24 hours) stood at 10.8 nM.
Consider `O=C(CCCc1nc2ccccc2c(=O)[nH]1)N[C@H]1CC[C@H](c2ncc(-c3ccccc3)o2)CC1` [Example 95, 4-(4-oxo-3,4-dihydro-2-quinazolinyl)-N-(trans-4-(5-phenyl-1,3-oxazol-2-yl)cyclohexyl)butanamide], for which the concentration for half-maximal inhibition (IC50) was found to be 0.16 nM in assay [1]; 1070 nM in assay [2]; 4.83 nM in assay [4]; 0.0979 nM in assay [5] (400 nM NAD, 60 minutes at RT); 1930 nM in assay [6].
As for `O=C(CCSc1nc2ccccc2c(=O)[nH]1)N[C@H]1C[C@@H](c2nnc(-c3ccccc3)o2)C1` [Example 39, 3-((4-oxo-3,4-dihydroquinazolin-2-yl)thio)-N-((1s,3s)-3-(5-phenyl-1,3,4-oxadiazol-2-yl)cyclobutyl)propanamide], the IC50 in assay [1] is 0.389 nM; in assay [2], 1900 nM; in assay [5] (400 nM NAD, 60 minutes at RT), 0.405 nM.
Consider `O=C(CCSc1cc(=O)n2ccccc2n1)N[C@H]1CC[C@H](c2nnc(-c3ccccc3)o2)CC1` [Example 144, 3-((4-oxo-4H-pyrido[1,2-a]pyrimidin-2-yl)sulfanyl)-N-(trans-4-(5-phenyl-1,3,4-oxadiazol-2-yl)cyclohexyl)propanamide], for which the half-maximal inhibitory concentration (IC50) in assay [1] is 5.46 nM; in assay [2], > 170000 nM; in assay [4] it was 349 nM; in assay [5] (400 nM NAD, 60 minutes at RT), 4.78 nM; in assay [6], > 85000 nM.
As for `O=C(CCSc1nc2ccccc2c(=O)[nH]1)N[C@H]1CC[C@H](c2nnc(-c3cccc(Cl)c3)o2)CC1` [Example 118, N-((1r,4r)-4-(5-(3-chlorophenyl)-1,3,4-oxadiazol-2-yl)cyclohexyl)-3-((4-oxo-3,4-dihydroquinazolin-2-yl)thio)propanamide], the IC50 was 4.98 nM in assay [1]; 3280 nM in assay [2]; 1.2 nM in assay [4]; 0.107 nM in assay [5] (400 nM NAD, 60 minutes at RT). Besides, the EC50 in assay [3] (SW480 cells, 24 hours) is 3.34 nM.
For `O=c1[nH]c(CCNC(=O)[C@H]2CC[C@H](c3nnc(-c4ccccc4)o3)CC2)nc2ccccc12` [Example 1, trans-N-(2-(4-oxo-3,4-dihydro-2-quinazolinyl)ethyl)-4-(5-phenyl-1,3,4-oxadiazol-2-yl)cyclohexanecarboxamide], in that order: 22.5 nM, 3220 nM, 142 nM, 66.6 nM and 1390 nM.
For the compound `O=C(CCSc1nc2ccccc2c(=O)[nH]1)N[C@H]1CC[C@H](c2nnc(-c3ccc(Cl)cc3)o2)CC1` [Example 125, N-((1r,4r)-4-(5-(4-chlorophenyl)-1,3,4-oxadiazol-2-yl)cyclohexyl)-3-((4-oxo-3,4-dihydroquinazolin-2-yl)thio)propanamide], the 50% inhibitory concentration (IC50) in assay [1] is 0.179 nM; in assay [4], 1.93 nM; in assay [5] (400 nM NAD, 60 minutes at RT), 1.52 nM. In addition, the EC50 in assay [3] (SW480 cells, 24 hours) came out at 1.68 nM.
As to `COc1cccc(-c2nnc([C@H]3CC[C@H](NC(=O)CCSc4nc5ccccc5c(=O)[nH]4)CC3)o2)c1` [Example 120, N-((1r,4r)-4-(5-(3-methoxyphenyl)-1,3,4-oxadiazol-2-yl)cyclohexyl)-3-((4-oxo-3,4-dihydroquinazolin-2-yl)thio)propanamide], the IC50 in assay [1] worked out at 5.35 nM; in assay [2], 3730 nM; in assay [4], 2.03 nM; in assay [5] (400 nM NAD, 60 minutes at RT), 0.0647 nM. Besides, the EC50 in assay [3] (SW480 cells, 24 hours) worked out at 2.33 nM.
Take `O=C(CCSc1nc2ccccc2c(=O)[nH]1)N[C@H]1CC[C@H](c2nnc(-c3cccc(F)c3)o2)CC1` [Example 119, N-((1r,4r)-4-(5-(3-fluorophenyl)-1,3,4-oxadiazol-2-yl)cyclohexyl)-3-((4-oxo-3,4-dihydroquinazolin-2-yl)thio)propanamide]: the IC50 in assay [1] turned out to be 3.34 nM; in assay [4], 3 nM; in assay [5] (400 nM NAD, 60 minutes at RT), 0.194 nM. In assay [3] (SW480 cells, 24 hours), the EC50 came out at 5.72 nM.
`O=C(CCSc1nc2ccccc2c(=O)[nH]1)N[C@H]1CC[C@H](n2c(=O)[nH]c3cc(Cl)ccc32)CC1` [Example 90, N-((1r,4r)-4-(5-chloro-2-oxo-2,3-dihydro-1H-benzo[d]imidazol-1-yl)cyclohexyl)-3-((4-oxo-3,4-dihydroquinazolin-2-yl)thio)propanamide]: the half-inhibitory concentration (IC50) in assay [1] amounted to 0.796 nM; in assay [2], 720 nM; in assay [4], 7.84 nM; in assay [5] (400 nM NAD, 60 minutes at RT), 0.127 nM. Besides, in assay [3] (SW480 cells, 24 hours), the EC50 is 3.42 nM.
For `N#Cc1cccc(-c2nnc([C@H]3CC[C@H](NC(=O)CCc4nc5ccccc5c(=O)[nH]4)CC3)o2)c1` [Example 137, N-((1r,4r)-4-(5-(3-cyanophenyl)-1,3,4-oxadiazol-2-yl)cyclohexyl)-3-(4-oxo-3,4-dihydroquinazolin-2-yl)propanamide], the IC50 was determined as 99.8 nM in assay [1]; 4680 nM in assay [2]; 741 nM in assay [4]; 217 nM in assay [5] (400 nM NAD, 60 minutes at RT). Besides, the concentration giving a half-maximal response (EC50) in assay [3] (SW480 cells, 24 hours) was determined as 1820 nM.
Regarding `Cn1c(=O)n(C2CCN(C(=O)CCCc3nc4ccccc4c(=O)[nH]3)CC2)c2ccc(Cl)cc21` [Example 45, 2-(4-(4-(5-chloro-3-methyl-2-oxo-2,3-dihydro-1H-benzimidazol-1-yl)-1-piperidinyl)-4-oxobutyl)-4(3H)-quinazolinone], the IC50 in assay [1] is 52.5 nM; in assay [2], 1020 nM; in assay [4], 2340 nM; in assay [5] (400 nM NAD, 60 minutes at RT), 73.7 nM. For the same compound, the EC50 in assay [3] (SW480 cells, 24 hours) is 4630 nM.
For `O=C(CCc1nc2ccccc2c(=O)[nH]1)N[C@H]1CC[C@H](n2c(=O)[nH]c3ccccc32)CC1` [Example 84, N-(trans-4-(2-oxo-2,3-dihydro-1H-benzo[d]imidazol-1-yl)cyclohexyl)-3-(4-oxo-3,4-dihydroquinazolin-2-yl)propanamide] the same measures were 0.671 nM, 1030 nM, 433 nM, 1.44 nM and 1780 nM.
As for `O=C(CCCc1nc2ccccc2c(=O)[nH]1)N1CC=C(n2c(=O)[nH]c3ccccc32)CC1` [Example 46, 2-(4-oxo-4-(4-(2-oxo-2,3-dihydro-1H-benzimidazol-1-yl)-3,6-dihydro-1(2H)-pyridinyl)butyl)-4(3H)-quinazolinone trifluoroacetic acid], the IC50 worked out at 4.01 nM in assay [1]; 1360 nM in assay [4]; 17.7 nM in assay [5] (400 nM NAD, 60 minutes at RT); 2050 nM in assay [6]. The EC50 in assay [3] (SW480 cells, 24 hours) amounted to 4780 nM.
Regarding `N#Cc1ccc2c(c1)[nH]c(=O)n2[C@H]1CC[C@H](NC(=O)CSc2nc3ccccc3c(=O)[nH]2)CC1` [Example 103, N-((1r,4r)-4-(5-cyano-2-oxo-2,3-dihydro-1H-benzo[d]imidazol-1-yl)cyclohexyl)-2-((4-oxo-3,4-dihydroquinazolin-2-yl)thio)acetamide], the IC50 came to 9.92 nM in assay [1]; 2280 nM in assay [2]; 138 nM in assay [4]; 0.129 nM in assay [5] (400 nM NAD, 60 minutes at RT). Moreover, in assay [3] (SW480 cells, 24 hours), the EC50 was determined as 198 nM.
Take `O=C(CCCc1nc2ccccc2c(=O)[nH]1)N1CCC(N2C(=O)C(F)(F)c3ccccc32)CC1` [Example 60, 2-(4-(4-(3,3-difluoro-2-oxo-2,3-dihydro-1H-indol-1-yl)-1-piperidinyl)-4-oxobutyl)-4(3H)-quinazolinone]: the half-inhibitory concentration (IC50) in assay [1] is 28.9 nM; in assay [5], 46 nM; in assay [6], 4530 nM. The EC50 in assay [3] (SW480, 24 h) stood at 2410 nM.
